Laboratory results: patent US20260174839A1, “PN[…] OTHER VACCINES P[…] SAPONIN ADJUVANT” (priority 2022, published 2026)

Assays:
Format in all cases: in vivo
[1] = system: Streptococcus pneumoniae seven serotypes (3, 4, 6B, 9V, 14, 19A and 19F); experiment: IgG subclass pneumococcal antibody ELISA, seven serotypes together (average, summary); settings: adjuvant added to PCV13; BALB/c mice
Procedure: Four groups of female BALB/c mice (6 per group) were immunized with normal saline, one tenth human dose of PCV13, PCV13+VSA-1, and PCV13-QS21 on days 0, 14 […]. QS21 is another saponin adjuvant. Blood samples were obtained on day 42. IgG subclass of pneumococcal antibodies in the pooled serum samples of each group were determined with pneumococcal antibody ELISA for seven serotypes (3, 4, 6B, 9V, 14, 19A and 19F) using enzyme-conjugated antibodies against mouse IgG1, IgG2a or IgG3.

[2] = system: Streptococcus pneumoniae serotype 19F; experiment: Opsonophagocytosis assay of serum of immunized mice, serotype 19F; settings: PCV13 plus QS-21 vs PCV13 plus VSA-1
Procedure: (§1) BALB/c mice used in this study were purchased from the Jackson Laboratory and maintained within an environmentally controlled, pathogen-free animal facility at the University of Alabama at Birmingham (UAB). Each human dose of PCV13 (trade name Prevnar 13 by Pfizer) is available in 0.5 mL single-dose pre-filled syringes. Groups of female BALB/c mice (8-10 weeks of age, six per group) were immunized via the subcutaneous route (s.c.) with saline, PCV 13 (50 μL), PCV13 (50 μL) plus QS-21 (20 μg), or PCV13 (50 μL) plus VSA-1 (100 μg) on days 0, 14 and 28. Serum samples were collected prior to the first immunization and at 2 weeks following the last immunization. Equal volumes of the six sera in each group were pooled together to create serum pools for each group. The serum was obtained after centrifugation and stored at −20° C. until assayed. All studies were performed according to National Institutes of Health guidelines, and protocols were approved by the UAB Institutional Animal Care and Use Committee.
(§2) Opsonophagocytosis assay for serotypes 3, 4, 6B, 9V, 14, 19A, and 19F was performed using a 4-fold multiplexed opsonization assay described in the literature. […] Opsonic indices were determined as the interpolated serum dilution that kills 50% of bacteria. […]

[3] = system: Streptococcus pneumoniae serotypes 3, 4, 6B, 9V, 14, 19A, and 19F; experiment: Opsonophagocytosis assay, several serotypes together; settings: adjuvant added to PCV13 vs PCV13 alone, BALB/c mice
Procedure: as §1, §2

[4] = system: Streptococcus pneumoniae serotype 3; experiment: Opsonophagocytosis assay of serum of immunized mice, serotype 3; settings: PCV13 plus QS-21 vs PCV13 plus VSA-1
Procedure: as §1, §2

[5] = system: Streptococcus pneumoniae serotype 14; experiment: Opsonophagocytosis assay of serum of immunized mice, serotype 14; settings: adjuvant added to PCV13 vs PCV13 alone; BALB/c mice
Procedure: as §1, §2

[6] = system: Streptococcus pneumoniae serotype 9V; experiment: Opsonophagocytosis assay of serum of immunized mice, serotype 9V; settings: PCV13 plus QS-21 vs PCV13 plus VSA-1
Procedure: as §1, §2

Substance: QS-21
- IgG1, IgG2a and IgG3 antibodies titers against seven selected serotypes [1]: boosted
- opsonic titer, QS-21 superior to VSA-1, serotype 19F [2]: 1.2 fold
- increase of PCV13-induced opsonic titers [3]: 1.9-4.9 fold
- opsonic titer, QS-21 superior to VSA-1, serotype 3 [4]: 1.3 fold
- increase of PCV13-induced opsonic titers, serotype 14 [5]: 14.9 fold
- opsonic titer, QS-21 superior to VSA-1, serotype 9V [6]: 2.4 fold
